Converted amounts (≈) assume the structure as drawn. The source made the active and inactive calls. The calls are words filed in the database; no cut-off is given here.
Key:
Streptococcus pneumoniae [1] = experiment: Antibacterial activity against telethromycin-resistant Streptococcus pneumoniae 3271 expressing erm gene by NCCLS method; type: functional
Streptococcus pneumoniae [2] = experiment: Antibacterial activity against telethromycin-resistant Streptococcus pneumoniae 757 expressing erm gene by NCCLS method; type: functional
Streptococcus pneumoniae [3] = experiment: Antibacterial activity against telethromycin-resistant Streptococcus pneumoniae 3489 expressing erm gene by NCCLS method; type: functional
Streptococcus pneumoniae [4] = experiment: Antibacterial activity against telethromycin-resistant Streptococcus pneumoniae 5099 expressing erm gene by NCCLS method; type: functional
Streptococcus pneumoniae [5] = experiment: Antibacterial activity against Streptococcus pneumoniae 49619 by NCCLS method; type: functional
Moraxella catarrhalis = experiment: Antibacterial activity against Moraxella catarrhalis 8176 by NCCLS method; type: functional
Streptococcus pneumoniae [6] = experiment: Antibacterial activity against telethromycin-resistant Streptococcus pneumoniae AB14 expressing erm gene by NCCLS method; type: functional
Streptococcus pneumoniae [7] = experiment: Antibacterial activity against telethromycin-resistant Streptococcus pneumoniae B739 expressing erm gene by NCCLS method; type: functional
Streptococcus pneumoniae [8] = experiment: Antibacterial activity against Streptococcus pneumoniae 3579 expressing erm gene by NCCLS method; type: functional
Streptococcus pneumoniae [9] = experiment: Antibacterial activity against telethromycin-resistant Streptococcus pneumoniae 3390 expressing erm gene by NCCLS method; type: functional
Streptococcus pneumoniae [10] = experiment: Antibacterial activity against telethromycin-resistant Streptococcus pneumoniae 5051 expressing erm gene by NCCLS method; type: functional
Streptococcus pneumoniae [11] = experiment: Antibacterial activity against telethromycin-resistant Streptococcus pneumoniae 2840 expressing erm gene by NCCLS method; type: functional
Haemophilus influenzae = experiment: Antibacterial activity against Haemophilus influenzae 38 by NCCLS method; type: functional
Streptococcus pneumoniae [12] = experiment: Antibacterial activity against Streptococcus pneumoniae 994 expressing mef gene by NCCLS method; type: functional
Streptococcus pneumoniae [13] = experiment: Antibacterial activity against telethromycin-resistant Streptococcus pneumoniae 217 expressing erm gene by NCCLS method; type: functional
Streptococcus pneumoniae [14] = experiment: Antibacterial activity against telethromycin-resistant Streptococcus pneumoniae 3488 expressing erm gene by NCCLS method; type: functional
Streptococcus pneumoniae [15] = experiment: Antibacterial activity against Streptococcus pneumoniae 6303 by NCCLS method; type: functional
Streptococcus pyogenes = experiment: Antibacterial activity against Streptococcus pyogenes 19615 by NCCLS method; type: functional
Streptococcus pneumoniae [16] = experiment: Antibacterial activity against telethromycin-resistant Streptococcus pneumoniae 162 expressing erm gene by NCCLS method; type: functional
Streptococcus pneumoniae [17] = experiment: Antibacterial activity against Streptococcus pneumoniae 3579 expressing erm gene infected in mouse systemic infection model; type: functional, organism-based
Streptococcus pneumoniae [18] = experiment: Antibacterial activity against Streptococcus pneumoniae by NCCLS method; type: functional

Compound | MIC (Streptococcus pneumoniae [1]) | MIC (Streptococcus pneumoniae [2]) | MIC (Streptococcus pneumoniae [3]) | MIC (Streptococcus pneumoniae [4]) | MIC (Streptococcus pneumoniae [5]) | MIC (Moraxella catarrhalis) | MIC (Streptococcus pneumoniae [6]) | MIC (Streptococcus pneumoniae [7]) | MIC (Streptococcus pneumoniae [8]) | MIC (Streptococcus pneumoniae [9]) | MIC (Streptococcus pneumoniae [10]) | MIC (Streptococcus pneumoniae [11]) | MIC (Haemophilus influenzae) | MIC (Streptococcus pneumoniae [12]) | MIC (Streptococcus pneumoniae [13]) | MIC (Streptococcus pneumoniae [14]) | MIC (Streptococcus pneumoniae [15]) | MIC (Streptococcus pyogenes) | MIC (Streptococcus pneumoniae [16]) | Activity (Streptococcus pneumoniae [17]) | other results
CC[C@H]1OC(=O)[C@H](C)C(=O)[C@H](C)[C@@H](O[C@@H]2O[C@H](C)C[C@H](N(C)C)[C@H]2O)[C@](C)(OC)C[C@@H](C)C(=O)[C@H](C)[C@H]2N(CCCCn3cnc(-c4cccnc4)c3)C(=O)O[C@]12C [TELITHROMYCIN] | 64 µg/mL (≈ 78.8 µM) | 32 µg/mL (≈ 39.4 µM) | 64 µg/mL (≈ 78.8 µM) | 8 µg/mL (≈ 9.85 µM) | 0.06 µg/mL (≈ 0.0739 µM) | 0.25 µg/mL (≈ 0.308 µM) | 8 µg/mL (≈ 9.85 µM) | 64 µg/mL (≈ 78.8 µM) | 0.25 µg/mL (≈ 0.308 µM) | 8 µg/mL (≈ 9.85 µM) | 4 µg/mL (≈ 4.93 µM) | 64 µg/mL (≈ 78.8 µM) | 1 µg/mL (≈ 1.23 µM) | 0.25 µg/mL (≈ 0.308 µM) | 4 µg/mL (≈ 4.93 µM) | 8 µg/mL (≈ 9.85 µM) | 0.03 µg/mL (≈ 0.0369 µM) | 0.03 µg/mL (≈ 0.0369 µM) | 64 µg/mL (≈ 78.8 µM) | – | –
C=CCN(C)[C@H]1C[C@@H](C)O[C@@H](O[C@@H]2[C@@H](C)[C@H](OC(=O)Cc3ccccn3)[C@@H](C)C(=O)O[C@H](CC)[C@@]3(C)OC(=O)N(CCCCn4cnc(-c5ccc(N)nc5)c4)[C@@H]3[C@@H](C)C(=O)[C@H](C)C[C@@]2(C)OC)[C@@H]1O | 0.25 µg/mL (≈ 0.257 µM) | 0.06 µg/mL (≈ 0.0616 µM) | 0.25 µg/mL (≈ 0.257 µM) | 0.03 µg/mL (≈ 0.0308 µM) | 0.06 µg/mL (≈ 0.0616 µM) | 0.125 µg/mL (≈ 0.128 µM) | 0.03 µg/mL (≈ 0.0308 µM) | 0.125 µg/mL (≈ 0.128 µM) | 0.25 µg/mL (≈ 0.257 µM) | 0.06 µg/mL (≈ 0.0616 µM) | 0.03 µg/mL (≈ 0.0308 µM) | 0.25 µg/mL (≈ 0.257 µM) | – | 0.125 µg/mL (≈ 0.128 µM) | 0.06 µg/mL (≈ 0.0616 µM) | 0.03 µg/mL (≈ 0.0308 µM) | 0.06 µg/mL (≈ 0.0616 µM) | 2 µg/mL (≈ 2.05 µM) | 0.5 µg/mL (≈ 0.513 µM) | Active | –
CC[C@H]1OC(=O)[C@H](C)[C@@H](O[C@H]2C[C@@](C)(OC)[C@@H](O)[C@H](C)O2)[C@H](C)[C@@H](O[C@@H]2O[C@H](C)C[C@H](N(C)C)[C@H]2O)[C@](C)(O)C[C@@H](C)C(=O)[C@H](C)[C@@H](O)[C@]1(C)O [ERYTHROMYCIN] | – | – | – | – | 0.125 µg/mL (≈ 0.17 µM) | 8 µg/mL (≈ 10.9 µM) | – | – | 8 µg/mL (≈ 10.9 µM) | – | – | – | > 16 µg/mL | 0.5 µg/mL (≈ 0.681 µM) | – | – | 0.25 µg/mL (≈ 0.341 µM) | 0.015 µg/mL (≈ 0.0204 µM) | – | – | MIC (Streptococcus pneumoniae [18]): 0.25 µg/mL (≈ 0.341 µM)
C=CCN(C)[C@H]1C[C@@H](C)O[C@@H](O[C@@H]2[C@@H](C)[C@H](OC(=O)Cc3ccccn3)[C@@H](C)C(=O)O[C@H](CC)[C@@]3(C)OC(=O)N(CCCCn4cnc(-c5ccnc(N)c5)c4)[C@@H]3[C@@H](C)C(=O)[C@H](C)C[C@@]2(C)OC)[C@@H]1O | 2 µg/mL (≈ 2.05 µM) | 0.125 µg/mL (≈ 0.128 µM) | 1 µg/mL (≈ 1.03 µM) | 0.06 µg/mL (≈ 0.0616 µM) | 0.03 µg/mL (≈ 0.0308 µM) | 0.06 µg/mL (≈ 0.0616 µM) | 0.03 µg/mL (≈ 0.0308 µM) | 1 µg/mL (≈ 1.03 µM) | 0.125 µg/mL (≈ 0.128 µM) | 0.125 µg/mL (≈ 0.128 µM) | 0.06 µg/mL (≈ 0.0616 µM) | 0.5 µg/mL (≈ 0.513 µM) | – | 0.06 µg/mL (≈ 0.0616 µM) | 0.125 µg/mL (≈ 0.128 µM) | 0.125 µg/mL (≈ 0.128 µM) | 0.03 µg/mL (≈ 0.0308 µM) | 2 µg/mL (≈ 2.05 µM) | 1 µg/mL (≈ 1.03 µM) | Active | –
C=CCN(C)[C@H]1C[C@@H](C)O[C@@H](O[C@@H]2[C@@H](C)[C@H](OC(=O)Cc3ccccn3)[C@@H](C)C(=O)O[C@H](CC)[C@@]3(C)OC(=O)N(CCCCn4cnc5cnccc54)[C@@H]3[C@@H](C)C(=O)[C@H](C)C[C@@]2(C)OC)[C@@H]1O | – | – | – | – | 0.03 µg/mL (≈ 0.0321 µM) | 0.06 µg/mL (≈ 0.0643 µM) | – | – | 0.25 µg/mL (≈ 0.268 µM) | – | – | – | < 0.06 µg/mL | 0.25 µg/mL (≈ 0.268 µM) | – | – | 0.06 µg/mL (≈ 0.0643 µM) | 0.03 µg/mL (≈ 0.0321 µM) | – | – | –
C=CCN(C)[C@H]1C[C@@H](C)O[C@@H](O[C@@H]2[C@@H](C)[C@H](OC(=O)Cc3ccccn3)[C@@H](C)C(=O)O[C@H](CC)[C@@]3(C)OC(=O)N(CCCCn4cnc(-c5ccccc5)c4)[C@@H]3[C@@H](C)C(=O)[C@H](C)C[C@@]2(C)OC)[C@@H]1O | – | – | – | – | 0.03 µg/mL (≈ 0.0313 µM) | 0.25 µg/mL (≈ 0.261 µM) | – | – | 0.5 µg/mL (≈ 0.522 µM) | – | – | – | < 0.06 µg/mL | 0.25 µg/mL (≈ 0.261 µM) | – | – | 0.06 µg/mL (≈ 0.0626 µM) | 0.03 µg/mL (≈ 0.0313 µM) | – | – | –

From ChEMBL document CHEMBL1933046, “Synthesis and antibacterial activity of a novel series of acylides active against community acquired respiratory pathogens” (2012)
